# Assay results as given in article PMC6941846 (Bioorganic & medicinal chemistry, 2019).
# Read-outs that look alike come from different tables or passages of the source.
# Legend:
# [1] = target: T1, DYRK1A (Homo sapiens, UniProt Q13627); test: DYRK1A NFAT luciferase response assay; format: cell-based; settings: for DYRK1A-Luc EC50: HEK293T reporter cells, NFAT-dependent firefly luciferase, 48 h
# [2] = test system: HEK293T cells; test: Constitutive Renilla luciferase; format: cell-based; settings: for R-Luc CC50: HEK293T cells, constitutive Renilla luciferase drops by 50%, 48 h; for Index (CC50/EC50), Cytotoxicity / Activity Index: R-Luc CC50 / DYRK1A-Luc EC50, HEK293T; for fold reduction of cytotoxicity (R-Luc CC50): compared to OTS167 / parent
# [3] = test system: HEK293T cells; settings: for reduction in cell number / cells killed: inhibitor 40 nM combined with compound 56 (90 nM or 270 nM)
# [4] = in vitro; settings: human
# [5] = test system: 468 kinases; test: Kinome SCAN profile; format: binding; settings: 100 nM
# [6] = target: T1, DYRK1A; test: Kinome SCAN profile, DYRK1A; format: binding; settings: read-out: DYRK1A residual activity
# [7] = test system: human β-cells; test: Human islet β-cell replication
# [8] = test system: human β-cells; settings: cited from earlier work
# [9] = target: T2, MELK (Homo sapiens, UniProt Q14680); settings: FACS-sorted β-cells, vs vehicle; cited from earlier work
# T2 sequence (Q14680 whole entry): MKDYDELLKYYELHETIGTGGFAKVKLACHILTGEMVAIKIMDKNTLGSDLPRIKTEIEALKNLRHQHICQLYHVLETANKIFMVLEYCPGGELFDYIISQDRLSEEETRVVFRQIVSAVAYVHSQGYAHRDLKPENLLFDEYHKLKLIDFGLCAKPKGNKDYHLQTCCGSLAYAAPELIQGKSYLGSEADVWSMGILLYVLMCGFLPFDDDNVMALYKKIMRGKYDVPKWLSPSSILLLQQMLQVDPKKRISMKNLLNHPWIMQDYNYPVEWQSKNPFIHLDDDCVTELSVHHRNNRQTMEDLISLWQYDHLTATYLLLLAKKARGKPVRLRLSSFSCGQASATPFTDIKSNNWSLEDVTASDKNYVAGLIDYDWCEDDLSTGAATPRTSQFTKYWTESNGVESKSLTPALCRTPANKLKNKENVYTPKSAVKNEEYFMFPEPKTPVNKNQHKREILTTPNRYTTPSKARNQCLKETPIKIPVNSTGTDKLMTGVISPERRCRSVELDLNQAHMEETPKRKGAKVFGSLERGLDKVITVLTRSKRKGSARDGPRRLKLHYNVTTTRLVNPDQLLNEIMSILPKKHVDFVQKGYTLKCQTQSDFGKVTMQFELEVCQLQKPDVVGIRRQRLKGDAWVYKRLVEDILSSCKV
# [10] = Microsome stability assay, mouse liver microsomes; format: in vitro ADME; settings: 1 μM compound, NADPH
# [11] = Microsome stability assay, human liver microsomes; format: in vitro ADME; settings: 1 μM compound, NADPH
# [12] = Caco-2 permeability assay; format: in vitro ADME; settings: 10 μM, pH 7.4, direction not stated
# [13] = target: T2, MELK; test: MELK kinase binding assay
smiles,measurement,setting,value
"CN(C)C[C@H]1CC[C@H](Nc2c(C#N)cnc3ccc(-c4cc(Cl)c(O)c(Cl)c4)nc23)CC1 [Compound 16, 6-(3,5-Dichloro-4-hydroxyphenyl)-4-(((trans)-4-((dimethylamino)methyl)cyclohexyl)amino)-1,5-naphthyridine-3-carbonitrile]",fold reduction in DYRK1A inhibition potency,[1]; compared to OTS167,~ 9 fold
same,R-Luc CC50,[2],virtually non-toxic
"CCOC(=O)c1cnc2ccc(-c3cc(Cl)c(O)c(Cl)c3)nc2c1N1CCCCC1 [Compound 35, Ethyl 6-(3,5-dichloro-4-hydroxyphenyl)-4-(piperidin-1-yl)-1,5-naphthyridine-3-carboxylate]",DYRK1A-Luc EC50,[1],reduced DYRK1A inhibition potency
same,R-Luc CC50,[2],reduced cytotoxicity
"CCOC(=O)c1cnc2ccc(-c3cc(C)c(O)c(C)c3)nc2c1N[C@H]1CC[C@H](CN(C)C)CC1 [Compound 52, Ethyl 4-(((trans)-4-((dimethylamino)methyl)cyclohexyl)amino)-6-(4-hydroxy-3,5-dimethylphenyl)-1,5-naphthyridine-3-carboxylate]","Index (CC50/EC50), Cytotoxicity / Activity Index",[2],> 842
CCN(CCO)CCCOc1ccc2c(Nc3cc(CC(=O)Nc4cccc(F)c4)[nH]n3)ncnc2c1 [AZD-1152-HQPA],reduction in cell number / cells killed,[3]; 48 h,67%
same,CC50 at 48 h,[4],38.9 nM
"CCOC(=O)c1cnc2ccc(-c3cc(Cl)cc(Cl)c3)nc2c1N[C@H]1CC[C@H](CN(C)C)CC1 [Compound 50, Ethyl 6-(3,5-dichlorophenyl)-4-(((trans)-4-((dimethylamino)methyl)cyclohexyl)amino)-1,5-naphthyridine-3-carboxylate]",DYRK1A-Luc EC50,[1],abrogated DYRK1A-inhibition
CC(=O)c1cnc2ccc(-c3cc(Cl)c(O)c(Cl)c3)nc2c1N[C@H]1CC[C@H](CN(C)C)CC1 [Compound 5],kinases inhibited to less than 35% of baseline activity,[5],189/403
same,kinases with <1% residual activity,[5],69/403
same,remaining binding at 0.1 µM,[6],< 1%
same,dose range in which β-cell replication occurred,[7],5 to 40 nM
"Nc1ncnc2c1c(I)cn2[C@@H]1O[C@H](CO)[C@@H](O)[C@H]1O [Compound 5-IT, 5-iodotubercidin]",human β-cell replication induction-potency [ECmin],[8],~ 100 nM
Cn1c(=O)c(F)c(Nc2ccc(I)cc2F)c2c(=O)n(C[C@@H](O)CO)cnc21 [TAK-733],cytotoxicity in combination,"[3]; TAK-733 10 uM combined with 56 (30 nM, 90 nM, or 270 nM)",did not exhibit cytotoxicity
same,cells killed,"[3]; inhibitor alone at 10 uM, 48 h",did not exhibit cytotoxicity
c1cc(OCCN2CCCCC2)cc(-c2n[nH]c3ccc(-c4nc[nH]n4)cc23)c1 [CC-401],induction of MELK expression,[9],2.6 fold
"CCOC(=O)c1cnc2ccc(-c3cc(Cl)c(O)c(Cl)c3)nc2c1N1CCNCC1 [Compound 38, Ethyl 6-(3,5-dichloro-4-hydroxyphenyl)-4-(piperazin-1-yl)-1,5-naphthyridine-3-carboxylate]",DYRK1A-Luc EC50,[1],reduced DYRK1A inhibition potency
same,fold less toxic than butyl amide counterpart (R-Luc CC50),[2]; HEK293T,7 fold
same,R-Luc CC50,[2],reduced cytotoxicity
same,"Index (CC50/EC50), Cytotoxicity / Activity Index",[2],137
"CCNC(=O)c1cnc2ccc(-c3ccnc(N)c3)nc2c1N[C@H]1CC[C@H](CN(C)C)CC1 [Compound 60, 6-(2-Aminopyridin-4-yl)-4-(((trans)-4-((dimethylamino)methyl)cyclohexyl)amino)-N-ethyl-1,5-naphthyridine-3-carboxamide]",DYRK1A-Luc EC50,[1],maintained good DYRK1A activity
"CCOC(=O)c1cnc2ccc(-c3ccnc(N)c3)nc2c1N[C@H]1CC[C@H](CN2CCOCC2)CC1 [Compound 63, Ethyl 6-(2-aminopyridin-4-yl)-4-(((trans)-4-(morpholinomethyl)cyclohexyl)amino)-1,5-naphthyridine-3-carboxylate]",MLM t1/2,[10],readily metabolized
same,HLM t1/2,[11],readily metabolized
same,Caco-2,[12],2.7 1 x 10^−6 cm/s
"CCOC(=O)c1cnc2ccc(-c3ccncc3)nc2c1N[C@H]1CC[C@H](CN(C)C)CC1 [Compound 56, Ethyl 4-(((trans)-4-((dimethylamino)methyl)cyclohexyl)amino)-6-(pyridin-4-yl)-1,5-naphthyridine-3-carboxylate]",Kd,[13],15 nM
same,MLM t1/2,[10],readily metabolized
same,HLM t1/2,[11],readily metabolized
same,Caco-2,[12],4.03 1 x 10^−6 cm/s
same,cytotoxicity (cell number),"[3]; 56 alone at 30 nM, 90 nM or 270 nM, 48 h",no cytotoxicity
"CCOC(=O)c1cnc2ccc(-c3cc(Cl)c(O)c(Cl)c3)nc2c1N[C@H]1CC[C@H](CN(C)C)CC1 [Compound 15, Ethyl-6-(3,5-dichloro-4-hydroxyphenyl)-4-(((trans)-4 ((dimethylamino)methyl)cyclohexyl)amino)-1,5-naphthyridine-3-carboxylate]",fold reduction of cytotoxicity (R-Luc CC50),[2]; HEK293T,~ 3 fold
CC(C)Oc1ccc(F)c(-c2cnc(N)c(C(=O)Nc3cnccc3N3CCC[C@@H](C(=O)O)C3)n2)c1 [GNF-4877],human β-cell replication induction-potency [ECmin],[8],~ 100 nM
CCCCNC(=O)c1cnc2ccc(-c3cc(Cl)c(O)c(Cl)c3)nc2c1N[C@H]1CC[C@H](C(=O)N2CCOCC2)CC1 [Compound 47],Caco-2,[12],9.1 1 x 10^−6 cm/s
"CCOC(=O)c1cnc2ccc(-c3cc(Cl)c(O)c(Cl)c3)nc2c1NC1CCN(C)CC1 [Compound 34, Ethyl 6-(3,5-dichloro-4-hydroxyphenyl)-4-((1-methylpiperidin-4-yl)amino)-1,5-naphthyridine-3-carboxylate]",fold increase in the Cytotoxicity / Activity Index,[2]; compared to OTS167,~ 13 fold
same,fold reduction of cytotoxicity (R-Luc CC50),[2]; HEK293T,~ 16 fold
same,Caco-2,[12],4.6 1 x 10^−6 cm/s
"COc1ccc2c(c1)[nH]c1c(C)nccc12 [Harmine, harmine]",human β-cell replication induction-potency [ECmin],[8],"~ 3,000 nM"
"CCOC(=O)c1cnc2ccc(-c3cc(Cl)c(O)c(Cl)c3)nc2c1N1CCOCC1 [Compound 37, Ethyl 6-(3,5-dichloro-4-hydroxyphenyl)-4-morpholino-1,5-naphthyridine-3-carboxylate]",DYRK1A-Luc EC50,[1],reduced DYRK1A inhibition potency
same,R-Luc CC50,[2],reduced cytotoxicity
O=C(O)[C@]1(Cc2cccc(Nc3nccs3)n2)CC[C@@H](Oc2cccc(Cl)c2F)CC1 [MK-5108],cells killed,"[3]; MK 3 μM with 56 at 30 nM, 48 h",31%
same,cells killed,"[3]; MK 3 μM with 56 at 90 nM, 48 h",36%
same,cells killed,"[3]; MK 3 μM with 56 at 270 nM, 48 h",34%
same,CC50 at 48 h,[4]; HEK293T cells,> 10000 nM
O=C(NC[C@H](O)CO)c1ccncc1Nc1ccc(I)cc1F [AS-703026],cells killed,"[3]; inhibitor 10 uM combined with 56 (90 nM), 48 h",6%
O=C(O)c1ccc(Nc2ncc3c(n2)-c2ccc(Cl)cc2C(c2c(F)cccc2F)=NC3)cc1 [MLN-8054],reduction in cell number / cells killed,[3]; 48 h,50%
same,CC50 at 48 h,[4],55.1 nM
"CCOC(=O)c1cnc2ccc(-c3cc(Cl)c(O)c(Cl)c3)nc2c1N1CCC(C)CC1 [Compound 36, Ethyl 6-(3,5-dichloro-4-hydroxyphenyl)-4-(4-methylpiperidin-1-yl)-1,5-naphthyridine-3-carboxylate]",DYRK1A-Luc EC50,[1],reduced DYRK1A inhibition potency
same,R-Luc CC50,[2],reduced cytotoxicity
"CCOC(=O)c1cnc2ccc(-c3cc(Cl)c(O)c(Cl)c3)nc2c1N[C@H]1CC[C@H](C)CC1 [Compound 32, Ethyl 6-(3,5-dichloro-4-hydroxyphenyl)-4-(((trans)-4-methylcyclohexyl)amino)-1,5-naphthyridine-3-carboxylate]",DYRK1A-Luc EC50,[1],eliminated cellular activity
"CCOC(=O)c1cnc2ccc(-c3cc(Cl)c(O)c(Cl)c3)nc2c1Nc1ccc(CN(C)C)cc1 [Compound 27, Ethyl 6-(3,5-dichloro-4-hydroxyphenyl)-4-((4-((dimethylamino)methyl)phenyl)amino)-1,5-naphthyridine-3-carboxylate]",DYRK1A-Luc EC50,[1],maintained DYRK1A inhibition potency
same,fold reduction of cytotoxicity (R-Luc CC50),[2]; HEK293T,~ 60 fold
"CCOC(=O)c1cnc2ccc(-c3cc(Cl)c(O)c(Cl)c3)nc2c1N[C@H]1CC[C@H](CC(N)=O)CC1 [Compound 49, Ethyl 4-(((trans)-4-(2-amino-2-oxoethyl)cyclohexyl)amino)-6-(3,5-dichloro-4-hydroxyphenyl)-1,5-naphthyridine-3-carboxylate]",Caco-2,[12],0.01 1 x 10^−6 cm/s
"CCOC(=O)c1cnc2ccc(-c3cc(Cl)c(O)c(Cl)c3)nc2c1N[C@H]1CC[C@H](C(=O)N(C)C)CC1 [Compound 42, Ethyl 6-(3,5-dichloro-4-hydroxyphenyl)-4-(((trans)-4-(dimethylcarbamoyl)cyclohexyl)amino)-1,5-naphthyridine-3-carboxylate]",Caco-2,[12],0.12 1 x 10^−6 cm/s
